Literature values as cited in PMC8764166, “Phenolic-Rich Plant Extracts With Antimicrobial Activity: An Alternative to Food Preservatives and Biocides?” (Frontiers in Microbiology, 2022).

Tests used:
[1] = test system: B. subtilis, E. coli, S. aureus, and S. typhimurium; set-up: method as in Dinesh Kumar et al., 2016; conditions: all test bacteria; ref Dinesh Kumar et al., 2016
Bacillus cereus = test system: Bacillus cereus; set-up: method as in Serra et al. (2008); conditions: 20 mg·L^−1 quercetin, in grape extract or as solution; ref Serra et al. (2008)
DNA gyrase = test system: DNA gyrase; set-up: method as in Plaper et al., 2003; conditions: ref Plaper et al., 2003
Escherichia coli = conditions: ref Adamczak et al., 2020
Salmonella typhimurium = conditions: ref Phadungkit and Luanratana, 2006
[2] = test system: biofilms with undesirable food spoiling or foodborne pathogenic microorganisms; set-up: method as in the references listed per substance; conditions: the references listed per substance

SMILES: O=c1c(O)c(-c2ccc(O)c(O)c2)oc2cc(O)cc(O)c12 [Quercetin]
- time after which antibacterial effect is lost [1]: 2 to 9 h
- growth of Bacillus cereus (Bacillus cereus): totally inhibited the growth of Bacillus cereus unlike a 20 mg·L^−1 quercetin solution
- DNA gyrase inhibition (DNA gyrase): – DNA gyrase inhibition either by interaction of quercetin with DNA or with ATP binding site of gyrase
- MIC against E. coli (Escherichia coli): E. coli 0.5 g·L^−1
- MIC against S. typhimurium (Salmonella typhimurium): S. typhimurium 15.6 mg·L^−1
- activity against biofilms [2]: inhibit formation or to eradicate biofilms
